Data on three compounds can be found in article PMC12389534, “Unlocking Therapeutic Potential of Novel Thieno-Oxazepine Hybrids as Multi-Target Inhibitors of AChE/BChE and Evaluation Against Alzheimer’s Disease: In Vivo, In Vitro, Histopathological, and Docking Studies” (Pharmaceuticals, 2025).

Assay [1] has as its system AlCl3-induced AD rat model. The assay is described as follows: Morris water maze (MWM) test in AlCl3-induced AD rats. The assay is classed as in vivo. To be noted: for Learning (s): escape latency; for Learning (s) / Memory (s): mean ± SE, n = 6; for Memory (s): time spent in target quadrant. As to the method:
All procedures were conducted conforming to the applicable National Institutes of Health standards and regulations for the Care and Use of Laboratory Animals. In this experiment, adult male Dawley rats in excellent condition weighing between 300 and 320 g were used. The animals were acquired from the Nile Company for Pharmaceuticals and Chemical Industries (Cairo, Egypt). They were placed in a controlled laboratory setting with unrestricted access to water, a temperature range of 24 to 26 °C, and 12 h a light–dark cycle. Three rats per cage were housed in polycarbonate cages that were individually packed with paper and encased with stainless steel wire.
Spatial learning and memory were inspected using the MWM test. Tap water was poured into a 150 cm diameter by 60 cm high circular water tank until it reached a depth of 30 cm (25 ± 2 °C). To make the water […], non-toxic white dye was applied. The east, west, north, and south quadrants of the pool were essentially separated into four equal sections. At a specific spot in the middle of one quadrant, an escape platform with a diameter of 10 cm was submerged 2 cm below the water’s surface. The platform stood in the exact same quadrant throughout the testing. The rats’ swimming route was recorded by a video camera situated above the pool. From a designated spot in each quadrant, each rat was submerged in the water with its back turned to the pool wall, and it was then left to swim to the platform. The rats received training sessions every day for three days in a row, with four trials conducted in each session. Before the next trial began, the animals were kept a maximum of 60 s to explore the hidden platform. After that, they were permitted to relax on it for 20 s. The rat was positioned gently on the platform and allowed 20 s to rest if it took longer than 60 s to locate it. The time taken to find the platform, or the escape latency, was documented. In order to do a probing test on the fourth day, the platform was detached away, and the rats were given 60 s to swim liberally. The time spent in the assigned quadrant was counted.

For another assay, the system named is BDNF. Briefly: Brain BDNF level (ELISA). The assay is classed as in vivo, rat. To be noted: AlCl3-induced AD rats; for BDNF (ng/mL): brain tissue, mean ± SE, n = 6. As to the method:
(§1) The brain tissues of the rats were removed and rigorously washed in isotonic saline 24 h after they were euthanized following the last behavioral test. For histological investigation, four brains per group were preserved for the whole night in 10% neutral buffered formalin. The remaining six brains were split into two sections each. In order to create a 10% homogenate (w/v), the first component was instantaneously homogenized using an ice-cold solution that included 300 mM sucrose and 50 mM Tris-HCl (pH 7.4). The homogenate was centrifuged at 1800× g for 10 min at 4 °C for biochemical tests, and the supernatant was thereafter kept at −20 °C. The second portion was set aside for use in RT-PCR analysis at −80 °C [94].
(§2) See Supplementary Information.

Another assay concerns TNF-α. The assay is described as follows: Brain TNF-α level (ELISA). Format: in vivo, rat. To be noted: AlCl3-induced AD rats; for TNF-α (pg/g Tissue): mean ± SE, n = 6. As to the method: as §1, with “[94]. […]” for “[94].”
The next assay relates to TLR4. The assay is described as follows: TLR4 mRNA expression (RT-qPCR). The assay is classed as in vivo, rat. Details: reduction of TLR4 mRNA expression: concentration or dose not given beside the values. To be noted: AlCl3-induced AD rats; for TLR4: mRNA expression level, mean ± SE, n = 6. Here is the method:
as §1, §2

In the next assay the test system is Bcl-2. Briefly: Bcl-2 gene expression (RT-qPCR). The assay is classed as in vivo, rat. To be noted: AlCl3-induced AD rats; for Bcl-2: gene expression, mean ± SE, n = 6. Here is the method: as §1, §2
A further assay relates to GSK3β. The assay is described as follows: GSK3β gene expression (RT-qPCR). The assay is classed as in vivo, rat. To be noted: AlCl3-induced AD rats; for GSK3β: gene expression, mean ± SE, n = 6. Here is the method: as §1, §2
A further assay has as its system β-catenin. Briefly: Brain β-catenin level. The assay is classed as in vivo, rat. To be noted: AlCl3-induced AD rats; for β-Catenin (ng/L): mean ± SE, n = 6. Here is the method: as §1, §2
Another assay concerns TAC. The assay is described as follows: Brain TAC (colorimetric). The assay is classed as in vivo, rat. To be noted: AlCl3-induced AD rats; for TAC (µmol/g Tissue): brain tissue, mean ± SE, n = 6. Here is the method:
as §1
The SOD enzyme activity was estimated using the Marklund et al. method, which is founded on the enzyme’s capacity to decrease the nitro blue tetrazolium dye at a wavelength of 540 nm. To evaluate the TAC, a colorimetric approach was employed to estimate the amount of hydrogen peroxide that remains after 3,5-dichloro-2-hydroxybenzene sulphonate is converted to a colored product at 660 nm.

The next assay concerns HO-1. Briefly: HO-1 mRNA expression (RT-qPCR). To be noted: AlCl3-induced AD rats; for HO-1: mRNA expression in brain tissue, mean ± SE, n = 6. The assay is classed as in vivo, rat. As to the method: as §1, §2
Assay [2] deals with brain tissue (CC, ST, FD, SN neurons). The assay is described as follows: Histopathological examination of brain tissue. To be noted: brain sections, AlCl3-induced AD rats; for histopathological finding in CC, ST, FD and SN (NP = nuclear pyknosis): H&E. Format: in vivo, rat. Here is the method:
as §1
Brain tissue samples were stationed in 10% formalin for 24 h, washed with water, and then serially diluted with alcohol to induce dehydration. After being submerged in paraffin, the specimens were cut into segments that were 4 µm thick using a microtome.

The next assay concerns the target T1, AChE (Homo sapiens, UniProt P22303).
T1 construct: purchased BioVision K197-100
Briefly: biochemical. To be noted: colorimetric kit, 412 nm. As to the method: All newly created compounds were subjected to an AChE enzyme inhibitory screening. This was performed with the Colorimetric AChE Inhibitor Screening Kit (BioVision Catalog # K197-100). The 96-well assay kit provides a rapid, simple, and reliable way to screen for AChE inhibitors in large quantities. […] A completely transparent 96-well plate with a flat bottom was loaded with 10 µL of test inhibitors that were diluted (20×). […] A measure of 10 μL of diluted AChE was applied to each well that contained compounds, inhibitor control, and solvent control. […] Measures of 25 μL of AChE assay buffer, 5 μL of probe mix, and 10 μL of diluted AChE substrate were mixed to create the reaction mix. The reaction mix was mixed with the compound, enzyme control, and inhibitor control. […] The IC50 was calculated using nonlinear regression analysis using the response–concentration (log) curve.

The next assay deals with BAX/Bcl-2. Briefly: BAX/Bcl-2 ratio of gene expression. The assay is classed as in vivo, rat. To be noted: AlCl3-induced AD rats. Here is the method:
as §1, §2

Molecules are shown by their SMILES. Entries after “also recorded” stand apart in the source; their conditions may differ.

T1 sequence (P22303 32-614): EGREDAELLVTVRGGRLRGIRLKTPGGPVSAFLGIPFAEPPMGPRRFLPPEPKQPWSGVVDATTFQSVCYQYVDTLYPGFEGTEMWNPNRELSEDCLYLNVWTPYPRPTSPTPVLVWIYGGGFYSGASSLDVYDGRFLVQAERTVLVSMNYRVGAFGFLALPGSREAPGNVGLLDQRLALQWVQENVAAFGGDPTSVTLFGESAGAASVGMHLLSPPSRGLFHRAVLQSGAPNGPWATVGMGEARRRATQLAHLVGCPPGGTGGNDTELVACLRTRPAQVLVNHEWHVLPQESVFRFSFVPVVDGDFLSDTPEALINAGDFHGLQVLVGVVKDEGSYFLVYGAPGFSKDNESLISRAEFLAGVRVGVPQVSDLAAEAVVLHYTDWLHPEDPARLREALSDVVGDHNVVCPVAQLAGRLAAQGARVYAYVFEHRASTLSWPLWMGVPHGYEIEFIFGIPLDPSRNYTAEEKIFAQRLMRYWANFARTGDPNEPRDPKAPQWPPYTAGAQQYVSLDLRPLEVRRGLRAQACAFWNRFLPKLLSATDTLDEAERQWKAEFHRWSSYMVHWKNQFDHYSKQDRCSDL

`N#Cc1ccc(N2CC(=O)Oc3sc4c(c3C2=O)CCCCC4)cc1` [Compound 13, 4-(2,5-Dioxo-2,3,7,8,9,10-hexahydro-6H-cyclohepta[4,5]thieno[3,2-f][1,4]oxazepin-4(5H)-yl)benzonitrile]: in assay [1], the “increase in quadrant residence time” value is on record as “about 4.1 times”, the “reduction in escape latency” value is listed as 71.2%, the “Learning (s)” value was 14.17 ± 0.95 ^abc s and the “Memory (s)” value is 40.50 ± 2.62 ^abc s. Further, in the assay with BDNF, the “elevation of BDNF levels” value was 2.4 fold and the “BDNF (ng/mL)” value is 104.9 ± 0.07 ^abc ng/mL. Also, in the assay on TNF-α, the “decline in TNF-α levels” value is listed as 70.2% and the “TNF-α (pg/g Tissue)” value is recorded as 52.38 ± 0.59 ^abc pg/g Tissue. Also, in the assay on TLR4, the “reduction of TLR4 mRNA expression” value was 57.5% and the TLR4 is reported as 4.09 ± 0.27 ^abc. Also, in the assay with Bcl-2, the “upregulation of Bcl-2 gene expression” value is on record as 6.5 fold and the Bcl-2 is 0.79 ± 0.020 ^abc. In addition, the GSK3β with GSK3β is recorded as 3.63 ± 0.04 ^abc. Besides, in the assay with β-catenin, the “elevation of β-catenin levels” value stood at 7.7 fold and the “β-Catenin (ng/L)” value is 11.67 ± 0.13 ^abc ng/L. In the assay with TAC, the “improvement of TAC levels” value is recorded as approximately 3.4 times and the “TAC (µmol/g Tissue)” value is 32.9 ± 1.22 ^abc µmol/g Tissue. In the assay on HO-1, the “elevation of HO-1 mRNA expression” value is recorded as 6.2 fold and the HO-1 was 0.75 ± 0.010 ^abc. In assay [2], the “histopathological finding in CC, ST, FD and SN (NP = nuclear pyknosis)” value (from here on “histopathological finding in CC, ST”) is “normal histology of CC and FD, and moderate NP in ST and SN”; the “histology of CC neurons and FD” value is “normal histological structures”; the “pyknosis in ST and SN neurons” value was “moderate pyknosis”. In addition, the IC50 on AChE was determined as 5.04 ± 0.17 µM. Also, in the assay with BAX/Bcl-2, the “BAX/Bcl-2 Ratio” value is recorded as 7.34.
For the compound `CCOc1ccc(N2CC(=O)Oc3sc4c(c3C2=O)CCCCC4)cc1` [Compound 14, 4-(4-Ethoxyphenyl)-3,4,7,8,9,10-hexahydro-6H-cyclohepta[4,5]thieno[3,2-f][1,4]oxazepine-2,5-dione], in assay [1], the “Learning (s)” value is reported as 21 ± 1.13 ^abc s and the “Memory (s)” value is on record as 29.50 ± 2 ^abc s. In the assay with BDNF, the “elevation of BDNF levels” value is recorded as 2.7 fold and the “BDNF (ng/mL)” value is 115.8 ± 0.07 ^abc ng/mL. In addition, in the assay on TNF-α, the “decline in TNF-α levels” value was 58.4% and the “TNF-α (pg/g Tissue)” value is listed as 73.21 ± 0.58 ^abc pg/g Tissue. Further, in the assay with TLR4, the “reduction of TLR4 mRNA expression” value is given as 62.6% and the TLR4 is 3.60 ± 0.12 ^abc. In the assay with Bcl-2, the “upregulation of Bcl-2 gene expression” value was 5.8 fold and the Bcl-2 is on record as 0.70 ± 0.004 ^abc. Moreover, in the assay on GSK3β, the GSK3β was 3.13 ± 0.07 ^abc. In the assay with β-catenin, the “elevation of β-catenin levels” value is 5.3 fold and the “β-Catenin (ng/L)” value is listed as 8.4 ± 0.09 ^abc ng/L. Besides, in the assay with TAC, the “improvement of TAC levels” value was found to be 3.8 times and the “TAC (µmol/g Tissue)” value is listed as 36.96 ± 0.51 ^abc µmol/g Tissue. Further, in the assay with HO-1, the “elevation of HO-1 mRNA expression” value is reported as 5.3 fold and the HO-1 is on record as 0.64 ± 0.009 ^abc. In [2], the “histopathological finding in CC, ST” value was “moderate NP in CC, FD, and SN, normal histology of neurons in ST; also recorded: significant pyknosis”. The IC50 against AChE was 0.39 ± 0.01 µM. Further, the “BAX/Bcl-2 Ratio” value in the assay with BAX/Bcl-2 is recorded as 7.84.
Turning to `O=C1CN(c2ccc(O)cc2)C(=O)c2c(sc3c2CCCCC3)O1` [Compound 15, 4-(4-Hydroxyphenyl)-3,4,7,8,9,10-hexahydro-6H-cyclohepta[4,5]thieno[3,2-f][1,4]oxa-zepine-2,5-dione], in assay [1], the “increase in quadrant residence time” value is reported as approximately 4.3 times, the “reduction in escape latency” value turned out to be 61%, the “Learning (s)” value is reported as 19.17 ± 1.01 ^abc s and the “Memory (s)” value was 42.50 ± 1.06 ^abc s. Moreover, in the assay with BDNF, the “elevation of BDNF levels” value is given as 2.2 fold and the “BDNF (ng/mL)” value was 94.48 ± 0.05 ^abc ng/mL. Moreover, in the assay on TNF-α, the “decline in TNF-α levels” value is reported as 74.6% and the “TNF-α (pg/g Tissue)” value is given as 44.6 ± 0.6 ^abc pg/g Tissue. Also, in the assay with TLR4, the “reduction of TLR4 mRNA expression” value was 52.5% and the TLR4 was 4.57 ± 0.09 ^abc. Besides, in the assay on Bcl-2, the “upregulation of Bcl-2 gene expression” value is reported as 7.1 fold and the Bcl-2 was 0.86 ± 0.020 ^abc. Further, in the assay on GSK3β, the “reduction of GSK3β gene expression” value is listed as 53.7% and the GSK3β was 4.72 ± 0.05 ^abc. Besides, in the assay with β-catenin, the “elevation of β-catenin levels” value was 8.8 fold and the “β-Catenin (ng/L)” value is 13.86 ± 0.11 ^abc ng/L. Besides, in the assay on TAC, the “improvement of TAC levels” value is approximately 3.3 times and the “TAC (µmol/g Tissue)” value was 31.67 ± 0.42 ^abc µmol/g Tissue. Also, in the assay on HO-1, the “elevation of HO-1 mRNA expression” value turned out to be 6.7 fold and the HO-1 is 0.82 ± 0.005 ^abc. Also, in assay [2], the “histopathological finding in CC, ST” value was “normal histology of CC and FD, and moderate NP in ST and SN”; the “histology of CC neurons and FD” value is on record as “normal histological structures”; the “pyknosis in ST and SN neurons” value is “moderate pyknosis”. On AChE, this compound displayed an IC50 of 1.59 ± 0.06 µM. Further, the “BAX/Bcl-2 Ratio” value with BAX/Bcl-2 is 5.20.
